From patent US20090275555A1, “Substituted indole ligands for the ORL-1 receptor” (priority 2004, published 2009) come the findings set out here.

Assay [1] deals with ORL-1 receptor (Homo sapiens, UniProt P41146). The assay is described as follows: Receptor binding studies, radioligand [3H]-AcRYYRWK-NH2. How it is done: The receptor binding studies were carried out on 96-well plates; the incubation medium was Tris HCl pH 7.4 (4° C.) containing MgCl2 (5 mM), EGTA (0.2 mM), BSA (0.1%), with a final volume of 1.0 ml, using as radioligand [^3H]-AcRYYRWK-NH2 (Amersham, 103 Ci/mmol). The samples were incubated at 37° C. for 120 min. and were then filtered off via Whatman GF/B filters pre-treated with 0.2% polyethylenimine. The filters were washed three times with Tris HCl buffer pH 7.4 (4° C.). The radioactivity present on the filters was measured using a Packard Top Count microplate scintillation counter.

In assay [2] the target is T1, ORL-1 receptor (Cavia porcellus, UniProt P47748).
T1 construct: evaluated for ORL-1 functional activity in electrically stimulated guinea pig ileum; from tissue; host or cells: guinea pig ileum
Put plainly: Electrically stimulated guinea pig ileum (GPI) assay. It is filed as cell-based. How it is done:
Compounds of the invention are evaluated for ORL-1 functional activity in electrically stimulated guinea pig ileum, in agreement with the experimental protocol described in Caló et. al., Br. J. Pharmacol. 129, 1183, (2000). The ORL-1 antagonist activity (pKb) is evaluated against the endogenous ORL-1 agonist N/OFQ.

[3] abbreviates: ORL-1 receptor, radioligand [3H]-AcRYYRWK-NH2, read-out: Binding affinity Ki.
The mark [4] stands for this setting: electrically stimulated guinea pig ileum, against the endogenous ORL-1 agonist N/OFQ, read-out: Antagonist activity (GPI) pKb vs N/OFQ (converted).

Structures can show the parent of a compound that is named as a salt. Where two headings read alike, the source gives them in different places.

Sequence of ORL-1 receptor (Homo sapiens, UniProt P41146) (P41146 whole entry): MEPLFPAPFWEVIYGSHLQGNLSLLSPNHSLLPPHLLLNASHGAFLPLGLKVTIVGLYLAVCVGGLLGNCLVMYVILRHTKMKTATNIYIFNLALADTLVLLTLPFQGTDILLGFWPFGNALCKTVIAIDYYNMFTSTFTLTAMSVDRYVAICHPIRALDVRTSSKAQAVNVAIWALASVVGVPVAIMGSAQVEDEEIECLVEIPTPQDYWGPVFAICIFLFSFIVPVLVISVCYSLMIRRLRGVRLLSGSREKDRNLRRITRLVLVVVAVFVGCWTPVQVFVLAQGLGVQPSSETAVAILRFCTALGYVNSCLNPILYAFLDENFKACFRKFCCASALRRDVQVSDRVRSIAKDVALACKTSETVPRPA
T1 sequence (P47748 whole entry): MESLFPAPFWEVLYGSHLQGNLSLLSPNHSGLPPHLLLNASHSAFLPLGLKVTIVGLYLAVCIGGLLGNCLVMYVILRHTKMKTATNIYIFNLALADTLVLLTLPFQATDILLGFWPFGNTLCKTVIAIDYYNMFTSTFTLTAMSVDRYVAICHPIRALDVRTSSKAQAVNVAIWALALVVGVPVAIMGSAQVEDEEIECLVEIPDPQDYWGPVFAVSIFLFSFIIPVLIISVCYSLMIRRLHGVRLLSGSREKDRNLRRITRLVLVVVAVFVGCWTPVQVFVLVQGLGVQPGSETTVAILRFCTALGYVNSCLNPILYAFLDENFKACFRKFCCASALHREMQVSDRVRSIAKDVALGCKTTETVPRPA

One may read the Ki as the equilibrium dissociation constant of an inhibitor or competing ligand from its target. Consider `NC(=O)Cn1c(-c2ccccc2)c(CN2CCC(c3c(Cl)cccc3Cl)CC2)c2ccccc21` [Example 143, 2-(3-[4-(2,6-Dichloro-phenyl)-piperidin-1-ylmethyl]-2-phenyl-indol-1-yl)-acetamide], for which the Ki on ORL-1 receptor [1] (setting [3]) turned out to be 3.2 nM. The Kb on ORL-1 receptor [2] (setting [4]) is 2.24 nM.
On the same counts, the results for `CN1CCC(NC(=O)Cn2c(C(=O)N3CCOCC3)c(CN3CCC(c4c(Cl)cccc4Cl)CC3)c3ccccc32)CC1` [Example 161, 2-[3-[4-(2,6-Dichloro-phenyl)-piperidin-1-ylmethyl]-2-(morpholine-4-carbonyl)-indol-1-yl]-N-(1-methyl-piperidin-4-yl)-acetamide dihydrochloride] are 8.2 nM and 0.955 nM.
Regarding `CN1CCC(NC(=O)Cn2c(-c3ccccc3)c(CN3CCC(c4c(Cl)cccc4Cl)CC3)c3ccccc32)CC1` [Example 160, 2-{3-[4-(2,6-Dichloro-phenyl)-piperidin-1-ylmethyl]-2-phenyl-indol-1-yl}-N-(1-methyl-piperidin-4-yl)-acetamide], the inhibition constant (Ki) on ORL-1 receptor [1] came out at 0.7 nM. At ORL-1 receptor [2], this compound had a Kb of 1.74 nM.
As to `NC(=O)Cn1c(C(=O)N2CCOCC2)c(CN2CCC(c3c(Cl)cccc3Cl)CC2)c2ccccc21` [Example 150, 2-[3-[4-(2,6-Dichloro-phenyl)-piperidin-1-ylmethyl]-2-(morpholine-4-carbonyl)-indol-1-yl]-acetamide hydrochloride], at ORL-1 receptor [1] (setting [3]), the Ki worked out at 8 nM. At ORL-1 receptor [2], the Kb is 8.91 nM.
Consider `Cc1cccc(C)c1C1CCN(Cc2c(C(=O)N3CCC4(CCN(C)C4)C3)[nH]c3ccccc23)CC1` (stereo not drawn) [Example 109, {3-[4-(2,6-Dimethyl-phenyl)-piperidin-1-ylmethyl]-1H-indol-2-yl}-(7-methyl-2,7-diaza-spiro[4.4]non-2-yl)-methanone], for which the Ki on ORL-1 receptor [1] (setting [3]) is 5.4 nM. On ORL-1 receptor [2] (setting [4]), the Kb is 1.23 nM.
On ORL-1 receptor [1], `Cc1cccc(C)c1C1CCN(Cc2c(C(=O)N3CCN(CCOCCO)CC3)[nH]c3ccccc23)CC1` [Example 97, {3-[4-(2,6-Dimethyl-phenyl)-piperidin-1-ylmethyl]-1H-indol-2-yl}-{4-[2-(2-hydroxy-ethoxy)-ethyl]-piperazin-1-yl}-methanone] had an inhibitory constant (Ki) of 6.5 nM. This compound gave a Kb at ORL-1 receptor [2] of 1 nM.
For `Cc1cccc(C)c1C1CCN(Cc2c(C(=O)N3C[C@@H]4C[C@H]3CO4)[nH]c3ccccc23)CC1` [Example 96], the Ki at ORL-1 receptor [1] (setting [3]) was 10 nM. Further, on ORL-1 receptor [2] (setting [4]), the Kb is 1.95 nM.
With `Cc1cccc(C)c1C1CCN(Cc2c(-c3ccccc3)n(CC(=O)NC3CCN(C)CC3)c3ccccc23)CC1` [Example 165, 2-{3-[4-(2,6-Dimethyl-phenyl)-piperidin-1-ylmethyl]-2-phenyl-indol-1-yl}-N-(1-methyl-piperidin-4-yl)-acetamide ditrifluoroacetate], the Ki on ORL-1 receptor [1] (setting [3]) worked out at 4.6 nM. This compound also had a Kb on ORL-1 receptor [2] of 4.17 nM.
Take `O=C(c1[nH]c2ccccc2c1CN1CCC(c2c(Cl)cccc2Cl)CC1)N1CCN(CCCO)CC1` [Example 75, {3-[4-(2,6-Dichloro-phenyl)-piperidin-1-ylmethyl]-1H-indol-2-yl}-[4-(3-hydroxy-propyl)-piperaizn-1-yl]-methanone]: the Ki at ORL-1 receptor [1] (setting [3]) came out at 1.5 nM. Also, the Kb on ORL-1 receptor [2] (setting [4]) is 3.02 nM.
